From US10696642B2, “TEAD transcription factor autopalmitoylation inhibitors” (The General Hospital Corporation, priority 2015, dated 2020)

How the values were obtained:
DHHC7 = assay: Selectivity assay: palmitoyl acyltransferase DHHC7; assay type: biochemical; conditions: 0 to 10 μM (FIG. 27)
Description: (§1) Assays were performed to measure inhibition of TEAD4 palmitoylation compared with other palmitoyl acyltransferses, DHHC4, DHHC7 and DHHC11. The ability of compound (4) (“CP-1”) to inhibit palmitoylation was tested at concentrations in the range from 0 to 10 μM and the amount of palmitoylation was quantified.

HuH7 cells [1] = assay: Cell proliferation assay, HuH7; assay type: cell-based, human
Description: (§2) Human cancer cell lines (HuH7, JHH7), transformed MCF10A-YAP and mouse Lats1/2 DKO cells were cultured in 5% FBS containing media. The cells were seeded into 96-well plate with 500 cells/well. Various concentrations of compounds (10 nM to 20 μM) or DMSO control were added into the wells. The cells were further incubated for 2-5 days. The cell viability is determined by using CellTiter Glo (Promega). The data were then normalized with DMSO control and plotted in Prism software Human melanoma cell A375 and dermal fibroblasts are control cells and are tested similarly.
(§3) Assays were performed to measure inhibition of cancer cell proliferation by compound (4). The ability of compound (4) (“CP-1”) to inhibit proliferation cell proliferation in the human hepatocellular carcinoma cell lines HuH7 and JHH7, and in the breast cancer cell line MDA-MB-453. The compound was also tested against the SK-HEP-1 (adenocarcinoma), BT-474 (breast tumor), OCUB-M (breast carcinoma), HCC1143 (ductal carcinoma), EVSA-T (ductal carcinoma) and BT-20 (breast carcinoma) cell lines.

MCF10A+YAP cells = assay: Cell proliferation assay, YAP transformed MCF10A; assay type: cell-based; conditions: 500 cells/well, 10 μM (FIG. 20)
Description: In addition, the cells were treated with compound 4 (10 μM) or DMSO controls to evaluate cell viability.
as §2

TEAD4 [2] = biological target: T1, TEAD4 (Homo sapiens, UniProt Q15561); assay: In vitro palmitoylation of purified TEAD4 with 1 μM alkyne-palmitoyl-CoA; assay type: biochemical; conditions: purified TEAD4, 1 μM alkyne-palmitoyl-CoA, 0 to 10 μM compound (FIG. 23)
T1 sequence (Q15561 whole entry, species assumed): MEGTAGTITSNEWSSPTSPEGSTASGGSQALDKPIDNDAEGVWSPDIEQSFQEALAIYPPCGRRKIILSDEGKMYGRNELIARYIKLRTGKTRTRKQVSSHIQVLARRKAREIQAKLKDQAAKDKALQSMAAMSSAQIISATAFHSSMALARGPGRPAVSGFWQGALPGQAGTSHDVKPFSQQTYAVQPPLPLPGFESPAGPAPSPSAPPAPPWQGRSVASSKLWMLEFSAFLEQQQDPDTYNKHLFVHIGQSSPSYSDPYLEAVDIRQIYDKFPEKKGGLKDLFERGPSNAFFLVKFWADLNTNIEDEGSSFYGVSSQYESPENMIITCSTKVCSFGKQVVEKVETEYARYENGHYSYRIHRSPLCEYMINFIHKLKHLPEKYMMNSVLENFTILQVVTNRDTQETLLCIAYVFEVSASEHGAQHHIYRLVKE
Description: (§4) Assays were performed to measure inhibition of TEAD2 and TEAD4 palmitoylation in vitro using purified TEAD2 and TEAD4 proteins and 1 μM of alkyne-palmitoyl-CoA. Compound (4) (“CP-1”) was tested at concentrations in the range from 0 to 10 μM and the amount of palmitoylation was quantified.

DHHC4 = assay: Selectivity assay: palmitoyl acyltransferase DHHC4; assay type: biochemical; conditions: 0 to 10 μM (FIG. 27)
Description: as §1

HuH7 cells [3] = assay: Colony formation, HuH7; assay type: cell-based, human
Description: Assays were performed to measure inhibition of cancer cell proliferation in HuH7 cells by compounds (4), (22) and (36), which were each tested at 0-20 μM.

TEAD1 = biological target: T2, TEAD1 (Homo sapiens, UniProt P28347); assay: TEAD1 palmitoylation in transfected cells; assay type: cell-based; conditions: 1 μM alkyne-palmitic acid probe, 0 to 10 μM compound (FIG. 24)
T2 construct: Myc; expressed in transfected cells
T2 sequence (P28347 whole entry): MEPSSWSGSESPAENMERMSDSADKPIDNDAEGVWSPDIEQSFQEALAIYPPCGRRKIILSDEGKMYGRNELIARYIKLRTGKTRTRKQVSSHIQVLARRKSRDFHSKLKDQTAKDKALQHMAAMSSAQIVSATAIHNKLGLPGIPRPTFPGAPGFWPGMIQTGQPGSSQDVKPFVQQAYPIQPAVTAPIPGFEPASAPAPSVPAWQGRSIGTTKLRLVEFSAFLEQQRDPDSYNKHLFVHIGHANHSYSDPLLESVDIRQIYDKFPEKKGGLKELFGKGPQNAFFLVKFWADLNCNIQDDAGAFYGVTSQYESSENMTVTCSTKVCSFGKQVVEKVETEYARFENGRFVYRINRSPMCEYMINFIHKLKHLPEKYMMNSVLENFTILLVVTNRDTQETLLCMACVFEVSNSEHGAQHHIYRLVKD
Description: (§5) Assays were performed to measure inhibition of TEAD1 and TEAD4 palmitoylation in cells that were transfected with TEAD1 and TEAD4 proteins and labelled with 1 μM of alkyne-palmitic acid probe. The ability of compound (4) (“CP-1”) to inhibit palmitoylation was tested at concentrations in the range from 0 to 10 μM and the amount of palmitoylation was quantified.

TEAD2 = biological target: T3, TEAD2 (Homo sapiens, UniProt Q15562); assay: In vitro autopalmitoylation of purified TEAD2 with 1 μM alkyne palmitoyl-CoA; assay type: biochemical
T3 construct: The cDNA encoding human TEAD2 (residues 217-447, TEAD2^217-447) was cloned into a pET29 vector; made in house; host or cells: E. coli BL21(DE3)-T1R
T3 sequence (Q15562 217-447): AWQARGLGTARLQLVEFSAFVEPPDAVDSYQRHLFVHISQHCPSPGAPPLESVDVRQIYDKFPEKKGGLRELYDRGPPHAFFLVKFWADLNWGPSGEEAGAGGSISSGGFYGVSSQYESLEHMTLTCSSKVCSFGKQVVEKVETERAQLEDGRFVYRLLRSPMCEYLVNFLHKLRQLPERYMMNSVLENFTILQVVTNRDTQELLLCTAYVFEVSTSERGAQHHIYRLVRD
Description: Recombinant TEAD2 YBD was incubated with 1 μM of alkyne palmitoyl-CoA for 1 h in the presence of control (DMSO) or increasing 0.5-20 μM of compound 4. Palmitoylation of TEAD2 was detected by streptavidin blot.
as §4

[4] = test system: Lats1/2 double knock-out MEF cells; assay: Scratch (cell migration) assay; assay type: cell-based, mouse; conditions: 2.5 μM; DMSO control closed the gap within 16-24 hs (FIG. 21)
Description: It has been reported that YAP/TAZ could promote cell invasion and migration (Chan et al., 2008). […] Cells were treated with DMSO control or 2.5 μM of MGH-CP1, and the activities of the compound in blocking the closure of the scratched area was measured. Cells treated with DMSO control migrated fast and closed the gap within 16-24 hs. […] Therefore, further optimization of MGH-CP1 is needed to develop potent and specific inhibitors as chemical tools or “lead” compounds for drug discovery.

TEAD4 [5] = biological target: T1, TEAD4; assay: TEAD4 palmitoylation in transfected cells; assay type: cell-based; conditions: 1 μM alkyne-palmitic acid probe, 0 to 10 μM compound (FIG. 24)
Description: as §5

JHH7 cells [6] = assay: Colony formation, JHH7; assay type: cell-based, human; conditions: JHH7 (FIG. 28 panel B)
[7] = test system: YAP-independent HCC and breast cancer cell lines; assay: Cell proliferation assay, YAP-independent cell lines; assay type: cell-based; conditions: compared with YAP dependent cell lines (FIG. 28 panels G-H)
Description: as §3

JHH7 cells [8] = assay: Cell proliferation assay, JHH7; assay type: cell-based, human
Description: as §2, §3

TEAD4-YAP interaction = biological target: T4, TEAD4-YAP interaction (Homo sapiens, UniProt Q15561); assay: Co-immunoprecipitation of TEAD4 and YAP; assay type: cell-based; conditions: 0 to 10 μM (FIG. 25)
T4 construct: Myc; expressed in transfected cells; host or cells: HEK293A
T4 sequence (Q15561 whole entry): as the sequence (Q15561 whole entry, species assumed) above
Description: HEK293A cells were transfected with the indicated above. After 48 h, cells were lysed with lysis buffer (50 mM Tris-HCl, pH 7.3, 150 mM NaCl, 0.5 mM EDTA, 1% Triton X-100, PhosSTOP phosphatase inhibitor cocktail, cOmplete EDTA-free protease inhibitors cocktail). Flag-YAP or Myc-TEAD1 was immunoprecipitated with anti-FLAG M2 magnetic beads (Sigma Aldrich) or anti-c-Myc antibody (M4439, Sigma Aldrich), respectively, overnight with rotation at 4° C. TEAD1 was captured using Protein A/G magnetic resins (Life technologies). Protein-bound resins were washed three times with lysis buffer and processed with SDS-PAGE sample buffer. Blots were probed with anti-c-Myc (Sigma Aldrich), anti-HA (Sigma Aldrich), anti-FLAG M2 (F1804, Sigma Aldrich).
Co-immunoprecipitation assays of TEAD4 and YAP were performed. The ability of compound (4) (“CP-1”) to inhibit to inhibit the TEAD4-YAP interaction was tested at concentrations in the range from 0 to 10 μM.

Compound: O=C(CSc1nnc[nH]1)Nc1ccc(C23CC4CC(CC(C4)C2)C3)cc1 [Compound 4]
- inhibition of palmitoylation with DHHC7 (DHHC7): did not inhibit
- IC50 (HuH7 cells [1]; Homo sapiens, Huh-7, FIG. 28 panel C): 1600 nM
- inhibition of cell proliferation, dose dependency (HuH7 cells [1]; HuH7 (FIG. 28 panel A)): dose-dependently inhibits
- inhibition of YAP-dependent cancer cell proliferation (HuH7 cells [1]; HuH7, 500 cells/well, 10 μM (FIG. 19)): inhibits
- inhibition of YAP-dependent cancer cell proliferation (MCF10A+YAP cells): inhibits
- inhibition of TEAD4 palmitoylation in vitro (TEAD4 [2]): dose-dependently inhibited
- inhibition of palmitoylation with DHHC4 (DHHC4): did not inhibit
- inhibition of colony formation (HuH7 cells [3]; HuH7 (FIG. 28 panel B)): inhibits
- inhibition of cancer cell proliferation / colony formation in HuH7 cells (HuH7 cells [3]; tested at 0-20 μM (FIG. 29)): effective
- inhibition of TEAD1 palmitoylation in cells (TEAD1): dose-dependently inhibited
- inhibition of TEAD2 YBD autopalmitoylation in vitro (TEAD2; 1 μM alkyne palmitoyl-CoA, 1 h, 0.5-20 μM compound, streptavidin blot (FIG. 9)): dose-dependently inhibits
- inhibition of TEAD2 palmitoylation in vitro (TEAD2; purified TEAD2, 1 μM alkyne-palmitoyl-CoA, 0 to 10 μM compound (FIG. 23)): dose-dependently inhibited
- inhibition of cell migration (closure of the scratched area) [4]: did not migrate
- inhibition of TEAD4 palmitoylation in cells (TEAD4 [5]): dose-dependently inhibited
- inhibition of colony formation (JHH7 cells [6]): inhibits
- inhibition of proliferation of YAP-independent cell lines [7]: less effective
- inhibition of cell proliferation, dose dependency (JHH7 cells [8]; JHH7 (FIG. 28 panel A)): dose-dependently inhibits
- inhibition of YAP-dependent cancer cell proliferation (JHH7 cells [8]; JHH, 500 cells/well, 10 μM (FIG. 18)): inhibits
- inhibition of the interaction of TEAD4 with YAP (TEAD4-YAP interaction): dose-dependently inhibited
